# Experimental data: publication PMC9958325 (Nature Communications, 2023)
# Where “and” joins values, the source holds several entries; their conditions need not be identical. Identical values can stand only once. Like-named read-outs stand apart in the source and are kept apart here.
# Key:
# [1] = test system: SARS-CoV-2^WK-521; test: microbe, parasite or virus in culture; format: cell-based; set-up: EC95, individual assays / EC95, Average: unit: µM
# [2] = test system: SARS-CoV-2 TKYX00012/ο BA.1; test: microbe, parasite or virus in culture; format: cell-based
# [3] = target: T1, human calpain (Homo sapiens, UniProt P07384); test: Human calpain activity assay; format: biochemical; settings: for %inhibition against humanCalpain: triplicate
# T1 sequence (P07384 2-714): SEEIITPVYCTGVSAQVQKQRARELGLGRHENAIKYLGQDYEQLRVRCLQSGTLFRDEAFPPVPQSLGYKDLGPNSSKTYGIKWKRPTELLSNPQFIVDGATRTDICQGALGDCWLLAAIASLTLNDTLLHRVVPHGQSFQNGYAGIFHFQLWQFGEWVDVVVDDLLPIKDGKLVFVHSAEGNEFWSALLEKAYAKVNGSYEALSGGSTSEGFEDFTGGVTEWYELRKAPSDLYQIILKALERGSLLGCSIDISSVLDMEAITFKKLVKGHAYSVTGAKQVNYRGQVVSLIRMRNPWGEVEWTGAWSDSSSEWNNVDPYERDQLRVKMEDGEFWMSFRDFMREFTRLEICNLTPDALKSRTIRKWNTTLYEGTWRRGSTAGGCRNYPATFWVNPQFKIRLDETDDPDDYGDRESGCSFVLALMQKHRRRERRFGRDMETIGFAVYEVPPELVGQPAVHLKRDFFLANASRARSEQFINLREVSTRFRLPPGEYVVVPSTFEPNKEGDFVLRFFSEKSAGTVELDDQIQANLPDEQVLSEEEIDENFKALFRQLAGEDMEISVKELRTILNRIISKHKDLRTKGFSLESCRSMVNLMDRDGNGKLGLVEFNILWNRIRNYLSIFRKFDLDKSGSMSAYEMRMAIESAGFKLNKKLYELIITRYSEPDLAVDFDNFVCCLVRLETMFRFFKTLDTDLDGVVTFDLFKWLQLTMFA
# T1 sequence (P04632 1-268 partner): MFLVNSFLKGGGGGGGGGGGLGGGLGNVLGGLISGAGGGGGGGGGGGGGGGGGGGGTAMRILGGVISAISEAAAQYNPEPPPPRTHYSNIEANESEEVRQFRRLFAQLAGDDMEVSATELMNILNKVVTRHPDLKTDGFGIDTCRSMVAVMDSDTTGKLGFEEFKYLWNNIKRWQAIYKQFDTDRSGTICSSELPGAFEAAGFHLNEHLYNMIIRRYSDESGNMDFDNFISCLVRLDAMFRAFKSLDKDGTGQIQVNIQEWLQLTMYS
# [4] = Pharmacokinetic study in PXB-mice (human liver-chimeric)
# [5] = test system: HeLa-ACE2-TMPRSS2 cells; test: Intracellular concentrations of compounds (LC/MS), HeLa-ACE2-TMPRSS2 cells; settings: 6 h; for Intracellular amount relative to nirmatrelvir: HeLa-ACE2-TMPRSS2 cells; for Intracellular amount, individual: listed as TKB-0248
# [6] = test system: SARS-CoV-2 TKYS02037/ο BA.2; test: microbe, parasite or virus in culture; format: cell-based
# [7] = test system: SARS-CoV-2 TKYTS14631/ο BA.5; test: microbe, parasite or virus in culture; format: cell-based
# [8] = test system: SARS-CoV-2^WK521 in A549-ACE2-TMPRSS2 cells; test: Antiviral assay, A549-ACE2-TMPRSS2 cells, WK521; format: cell-based
# [9] = test system: SARS-CoV-2 UT-NCD1757-1N/ο BA.2.75; test: microbe, parasite or virus in culture; format: cell-based
# [10] = test system: SARS-CoV-2^WK521 in HeLa-ACE2-TMPRSS2 cells; test: Antiviral assay, HeLa-ACE2-TMPRSS2 cells, WK521; format: cell-based
structure (smiles),measurement,setting,value
CC(C)(C)[C@H](NC(=O)C(F)(F)F)C(=O)N1C[C@H]2[C@@H]([C@H]1C(=S)N[C@@H](C[C@@H]1CCNC1=O)C(=O)c1nc3c(F)cccc3s1)C2(C)C [TKB248],"EC95, Average",[1],0.8712
same,"EC95, individual assays",[1],0.89 and 0.81 and 0.885 and 0.9
same,SARS-CoV2 RNA VeroE6 cell-based assay EC95,[1],870 ± 40 nM
same,EC50,"[1]; read-out: EC50, Average",225 nM
same,EC50,"[1]; read-out: EC50, VeroE6 + 2 µM CP100356",30 ± 30 nM
same,EC50,"[1]; read-out: EC50, VeroE6 with CP100356, Average",35 nM
same,EC50,"[1]; read-out: EC50, VeroE6 with CP100356, individual assays",23 nM and 65 nM and 17 nM
same,EC50,"[1]; read-out: EC50, individual assays",310 nM and 230 nM and 240 nM and 120 nM
same,EC50,[1]; read-out: SARS-CoV2 RNA VeroE6 cell-based assay EC50,220 ± 80 nM
same,EC50,[2]; read-out: EC50 against KTKYX00012/ο BA.1,282 ± 43 nM
same,EC50,"[2]; read-out: EC50 ο BA1, Average",282 nM
same,EC50,"[2]; read-out: EC50 ο BA1, individual assays",290 nM and 235 nM and 320 nM
same,Effect on human calpain (in words),[3],"neither of human cysteine enzymes, cathepsin L and calpain, were significantly affected"
same,%inhibition against humanCalpain,[3]; 0.000128 µM,0%
same,%inhibition against humanCalpain,[3]; 0.00064 µM,0%
same,%inhibition against humanCalpain,[3]; 0.0032 µM,0%
same,%inhibition against humanCalpain,[3]; 0.08 µM,0%
same,%inhibition against humanCalpain,[3]; 0.4 µM,0%
same,%inhibition against humanCalpain,[3]; 2 µM,1%
same,IC50,"[3]; 60 minute incubation, mean ± 1 S.D., n=3, read-out: IC50, human calpains",> 2000 nM
same,Cmax,"[4]; N = 3 male PXB-mouse, 10 mg/kg p.o.","1,925¶ ng/mL"
same,T1/2,"[4]; N = 3 male PXB-mouse, 10 mg/kg, oral (p.o.) value for TKB245",4.34¶ h
same,Plasma concentration,"[4]; PXB-mice, i.v. 10 mg/kg, 10 min, individual mice, listed as TKB0248, 10 mg/kg",8186.6 ng/mL and 8038.7 ng/mL and 9327.7 ng/mL
same,Plasma concentration,"[4]; PXB-mice, i.v. 10 mg/kg, 0.17 hr, individual mice, listed as TKB0248, 10 mg/kg",8190 ng/mL and 8040 ng/mL and 9330 ng/mL
same,Plasma concentration,"[4]; PXB-mice, i.v. 10 mg/kg, 60 min, individual mice, listed as TKB0248, 10 mg/kg",3193.2 ng/mL and 4290.6 ng/mL and 4927 ng/mL
same,Plasma concentration,"[4]; PXB-mice, i.v. 10 mg/kg, 1 hr, individual mice, listed as TKB0248, 10 mg/kg",3190 ng/mL and 4290 ng/mL and 4930 ng/mL
same,Plasma concentration,"[4]; PXB-mice, i.v. 10 mg/kg, 240 min, individual mice, listed as TKB0248, 10 mg/kg",955 ng/mL and 1072.2 ng/mL and 1659.6 ng/mL
same,Plasma concentration,"[4]; PXB-mice, i.v. 10 mg/kg, 4 hr, individual mice, listed as TKB0248, 10 mg/kg",960 ng/mL and 1070 ng/mL and 1660 ng/mL
same,Plasma concentration,"[4]; PXB-mice, i.v. 10 mg/kg, 480 min, individual mice, listed as TKB0248, 10 mg/kg",290 ng/mL and 301.5 ng/mL and 497.6 ng/mL
same,Plasma concentration,"[4]; PXB-mice, i.v. 10 mg/kg, 8 hr, individual mice, listed as TKB0248, 10 mg/kg",290 ng/mL and 300 ng/mL and 500 ng/mL
same,Plasma concentration,"[4]; PXB-mice, i.v. 10 mg/kg, 1440 min, individual mice, listed as TKB0248, 10 mg/kg",13.9 ng/mL and 20.8 ng/mL and 20 ng/mL
same,Plasma concentration,"[4]; PXB-mice, i.v. 10 mg/kg, 24 hr, individual mice, listed as TKB0248, 10 mg/kg",0.01 µg/ml and 0.02 µg/ml (2×)
same,Plasma concentration,"[4]; PXB-mice, p.o. 10 mg/kg, 10 min, individual mice, listed as TKB0248, 10 mg/kg",803.8 ng/mL and 639.6 ng/mL and 800.1 ng/mL
same,Plasma concentration,"[4]; PXB-mice, p.o. 10 mg/kg, 0.17 hr, individual mice, listed as TKB0248, 10 mg/kg",0.8 µg/ml (2×) and 0.64 µg/ml
same,Plasma concentration,"[4]; PXB-mice, p.o. 10 mg/kg, 60 min, individual mice, listed as TKB0248, 10 mg/kg",2400.6 ng/mL and 1592.1 ng/mL and 1781.9 ng/mL
same,Plasma concentration,"[4]; PXB-mice, p.o. 10 mg/kg, 1 hr, individual mice, listed as TKB0248, 10 mg/kg",2400 ng/mL and 1590 ng/mL and 1780 ng/mL
same,Plasma concentration,"[4]; PXB-mice, p.o. 10 mg/kg, 240 min, individual mice, listed as TKB0248, 10 mg/kg",1886.1 ng/mL and 944.6 ng/mL and 788.3 ng/mL
same,Plasma concentration,"[4]; PXB-mice, p.o. 10 mg/kg, 4 hr, individual mice, listed as TKB0248, 10 mg/kg",1890 ng/mL and 940 ng/mL and 790 ng/mL
same,Plasma concentration,"[4]; PXB-mice, p.o. 10 mg/kg, 480 min, individual mice, listed as TKB0248, 10 mg/kg",645.5 ng/mL and 263.6 ng/mL and 711 ng/mL
same,Plasma concentration,"[4]; PXB-mice, p.o. 10 mg/kg, 8 hr, individual mice, listed as TKB0248, 10 mg/kg",650 ng/mL and 260 ng/mL and 710 ng/mL
same,Plasma concentration,"[4]; PXB-mice, p.o. 10 mg/kg, 1440 min, individual mice, listed as TKB0248, 10 mg/kg",66.2 ng/mL and 80.3 ng/mL and 54.4 ng/mL
same,Plasma concentration,"[4]; PXB-mice, p.o. 10 mg/kg, 24 hr, individual mice, listed as TKB0248, 10 mg/kg",70 ng/mL and 80 ng/mL and 50 ng/mL
same,Oral F,"[4]; male PXB-mouse 10 mg/kg i.v. and p.o., dose-normalized AUC ratio, 10 mg/kg",72% and 72¶ %
same,Plasma concentration,"[4]; p.o., 10 min, individual animals (3 per time point), LC/MS/MS, listed as TKB0248",803.78 ng/mL and 639.58 ng/mL and 800.12 ng/mL
same,Plasma concentration,"[4]; p.o., 60 min, individual animals (3 per time point), LC/MS/MS, listed as TKB0248",2400.63 ng/mL and 1592.07 ng/mL and 1781.87 ng/mL
same,Plasma concentration,"[4]; p.o., 240 min, individual animals (3 per time point), LC/MS/MS, listed as TKB0248",1886.06 ng/mL and 944.61 ng/mL and 788.27 ng/mL
same,Plasma concentration,"[4]; p.o., 480 min, individual animals (3 per time point), LC/MS/MS, listed as TKB0248",645.53 ng/mL and 263.61 ng/mL and 711.03 ng/mL
same,Plasma concentration,"[4]; p.o., 1440 min, individual animals (3 per time point), LC/MS/MS, listed as TKB0248",66.21 ng/mL and 80.35 ng/mL and 54.38 ng/mL
same,Intracellular amount relative to nirmatrelvir,[5]; 50 µM,318 fold
same,Intracellular amount relative to nirmatrelvir,[5]; 100 µM,165 fold
same,"Intracellular amount, avg","[5]; Hela ACE2 TMPRSS2, 10uM",295.717 pmol(total)
same,"Intracellular amount, individual","[5]; Hela ACE2 TMPRSS2, 10uM",295.283 pmol(total) and 296.151 pmol(total)
same,"Intracellular amount, avg","[5]; Hela ACE2 TMPRSS2, 50uM",570.720 pmol(total)
same,"Intracellular amount, individual","[5]; Hela ACE2 TMPRSS2, 50uM",643.805 pmol(total) and 497.635 pmol(total)
same,"Intracellular amount, avg","[5]; Hela ACE2 TMPRSS2, 100uM",630.843 pmol(total)
same,"Intracellular amount, individual","[5]; Hela ACE2 TMPRSS2, 100uM",605.189 pmol(total) and 656.496 pmol(total)
same,EC50,[6]; read-out: EC50 against TKYVS2037/ο BA.2,210 ± 87 nM
same,EC50,"[6]; read-out: EC50 ο BA2, individual assays",150 nM
same,EC50,[7]; read-out: EC50 against TKYTS14631/ο BA.5,70 ± 8 nM
same,EC50,"[7]; read-out: EC50 ο BA5, Average",70.7 nM
same,EC50,"[7]; read-out: EC50 ο BA5, individual assays",67.1 nM and 80 nM and 65 nM
same,EC50,"[8]; SARS-CoV-2^WK521, read-out: EC50, A549-ACE2-TMPRSS2",199 ± 5 nM
same,EC50,"[8]; source data, listed as TKB0248, read-out: EC50, A549-AEC2-TMPRSS2, individual assays",200 nM and 204 nM and 193 nM
same,EC50,"[8]; source data, read-out: EC50, A549-AEC2-TMPRSS2, Average",199 nM
same,EC50,[9]; read-out: EC50 against UT-NCD1757-1N/ο BA.2.75,430 ± 91 nM
same,EC50,"[9]; read-out: EC50 ο BA2.75, individual assays",430 nM and 320 nM and 250 nM
same,EC50,"[10]; SARS-CoV-2^WK521, read-out: EC50, HeLa-ACE2-TMPRSS2",160 ± 75 nM
same,EC50,"[10]; source data, listed as TKB0248, read-out: EC50, HeLa-AEC2-TMPRSS2, individual assays",230 nM and 80 nM and 170 nM
